In this assay the target is HCV NS3-4A serine protease (full-length NS3-4A protein) (Hepatitis C virus genotype 1a (isolate 1) (HCV), UniProt P26664). The assay is described as follows: HCV NS3-4A protease assay. The assay is classed as biochemical, HCV genotype 1a. Conditions: strain HCV-1, fluorogenic peptide substrate, read-out: Protease assay Ex. 12 IC50. The procedure: The inhibitory activity of certain compounds of Table A against HCV NS3-4A serine protease is determined in a homogenous assay using the full-length NS3-4A protein (genotype 1a, strain HCV-1) and a commercially available internally-quenched fluorogenic peptide substrate as described by Taliani, M., et al. 1996 Anal. Biochem. 240:60-67, which is incorporated by reference in its entirety.
Chain of HCV NS3-4A serine protease (full-length NS3-4A protein) (P26664 1027-1657): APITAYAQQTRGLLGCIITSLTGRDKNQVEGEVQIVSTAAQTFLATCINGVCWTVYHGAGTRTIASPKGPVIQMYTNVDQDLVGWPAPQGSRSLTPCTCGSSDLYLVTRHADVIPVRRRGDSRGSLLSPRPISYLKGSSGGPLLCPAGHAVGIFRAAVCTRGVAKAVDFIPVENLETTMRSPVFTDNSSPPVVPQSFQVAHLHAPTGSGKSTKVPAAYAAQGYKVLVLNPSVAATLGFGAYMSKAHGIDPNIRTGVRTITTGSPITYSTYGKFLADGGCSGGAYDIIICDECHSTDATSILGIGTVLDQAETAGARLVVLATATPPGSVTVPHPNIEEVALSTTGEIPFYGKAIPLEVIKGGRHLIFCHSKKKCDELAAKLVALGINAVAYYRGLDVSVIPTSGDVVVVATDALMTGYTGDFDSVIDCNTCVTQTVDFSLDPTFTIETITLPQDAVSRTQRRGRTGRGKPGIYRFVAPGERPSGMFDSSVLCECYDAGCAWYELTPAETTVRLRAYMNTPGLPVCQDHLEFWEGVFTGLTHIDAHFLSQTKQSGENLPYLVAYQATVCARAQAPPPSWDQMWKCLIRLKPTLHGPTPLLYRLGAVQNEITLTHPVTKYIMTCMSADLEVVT
Chain of HCV NS3-4A serine protease (full-length NS3-4A protein) (P26664 1658-1711 partner): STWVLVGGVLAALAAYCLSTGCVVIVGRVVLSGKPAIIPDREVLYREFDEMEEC
What is called IC50 is the concentration at which inhibition is half-maximal. For `C=C[C@@H]1C[C@]1(NC(=O)[C@@H]1C[C@@]2(CN1C(=O)[C@@H](NC(=O)[C@@H](NC(=O)[C@@H]1CCCCN1C(C)C)C(C)C)C(C)C)C(C)(C)C21CCC1)C(=O)NS(=O)(=O)N(CC)CC` [Compound 130, (5R,8S)-N-[(1R,2S)-1-{[(diethylamino)sulfonyl]carbamoyl}-2-vinylcyclopropyl]-7-[(2S)-2-{[(2S)-2-({[(2S)-1-isopropylpiperidin-2-yl]carbonyl}amino)-3-methylbutanoyl]amino}-3-methylbutanoyl]-10,10-dimethyl-7-azadispiro[3.0.4.1]decane-8-carboxamide], the concentration for half-maximal inhibition (IC50) turned out to be 8 nM.

Turning to `C=C[C@@H]1C[C@]1(NC(=O)[C@@H]1C[C@@]2(CN1C(=O)[C@@H](NC(=O)[C@@H](NC(=O)[C@@H]1CCCCN1C(C)C)C(C)(C)C)C(C)C)C(C)(C)C21CCC1)C(=O)NS(=O)(=O)N(CC)CC` [Compound 131, (5R,8S)-N-[(1R,2S)-1-{[(diethylamino)sulfonyl]carbamoyl}-2-vinylcyclopropyl]-7-[(2S)-2-{[(2S)-2-({[(2S)-1-isopropylpiperidin-2-yl]carbonyl}amino)-3,3-dimethylbutanoyl]amino}-3-methylbutanoyl]-10,10-dimethyl-7-azadispiro[3.0.4.1]decane-8-carboxamide], the half-inhibitory concentration (IC50) came out at 5.5 nM. For `C=C[C@@H]1C[C@]1(NC(=O)[C@@H]1C[C@@]2(CN1C(=O)[C@@H](NC(=O)[C@@H](NC(=O)[C@@H]1CCCCN1C(C)C)C1CCCCC1)C(C)C)C(C)(C)C21CCC1)C(=O)NS(=O)(=O)N(CC)CC` [Compound 132, (5R,8S)-7-[(2S)-2-{[(2S)-2-cyclohexyl-2-({[(2S)-1-isopropylpiperidin-2-yl]carbonyl}amino)acetyl]amino}-3-methylbutanoyl]-N-[(1R,2S)-1-{[(diethylamino)sulfonyl]carbamoyl}-2-vinylcyclopropyl]-10,10-dimethyl-7-azadispiro[3.0.4.1]decane-8-carboxamide] the value was 2.8 nM; for `C=C[C@@H]1C[C@]1(NC(=O)[C@@H]1C[C@@]2(CN1C(=O)[C@@H](NC(=O)[C@@H](NC(=O)[C@@H]1CCCCN1C(C)C)C1(C)CCCCC1)C(C)(C)C)C(C)(C)C21CCC1)C(=O)NS(=O)(=O)N(CC)CC` [Compound 133, (5R,8S)-N-[(1R,2S)-1-{[(diethylamino)sulfonyl]carbamoyl}-2-vinylcyclopropyl]-7-[(2S)-2-{[(2S)-2-({[(2S)-1-isopropylpiperidin-2-yl]carbonyl}amino)-2-(1-methylcyclohexyl)acetyl]amino}-3,3-dimethylbutanoyl]-10,10-dimethyl-7-azadispiro[3.0.4.1]decane-8-carboxamide], 3 nM. Turning to `C=C[C@@H]1C[C@]1(NC(=O)[C@@H]1C[C@@]2(CN1C(=O)[C@@H](NC(=O)[C@@H](NC(=O)[C@@H]1CCCN1CC)C1(C)CCCCC1)C(C)(C)C)C(C)(C)C21CCC1)C(=O)NS(=O)(=O)N(CC)CC` [Compound 134, (5R,8S)-N-[(1R,2S)-1-{[(diethylamino)sulfonyl]carbamoyl}-2-vinylcyclopropyl]-7-[(2S)-2-{[(2S)-2-({[(2S)-1-ethylpyrrolidin-2-yl]carbonyl}amino)-2-(1-methylcyclohexyl)acetyl]amino}-3,3-dimethylbutanoyl]-10,10-dimethyl-7-azadispiro[3.0.4.1]decane-8-carboxamide], the concentration for half-maximal inhibition (IC50) came to 5 nM. For `C=C[C@@H]1C[C@]1(NC(=O)[C@@H]1C[C@@]2(CN1C(=O)[C@@H](NC(=O)[C@@H](NC(=O)[C@@H]1CCCCN1C(C)C)C1(C)CCCCC1)C(C)(C)C)C(C)(C)C21CCC1)C(=O)NS(=O)(=O)N1CCCC1` [Compound 135, (5R,8S)-7-[(2S)-2-{[(2S)-2-({[(2S)-1-isopropylpiperidin-2-yl]carbonyl}amino)-2-(1-methylcyclohexyl)acetyl]amino}-3,3-dimethylbutanoyl]-10,10-dimethyl-N-{(1R,2S)-1-[(pyrrolidin-1-ylsulfonyl)carbamoyl]-2-vinylcyclopropyl}-7-azadispiro[3.0.4.1]decane-8-carboxamide] the value was 4.5 nM; for `C=C[C@@H]1C[C@]1(NC(=O)[C@@H]1C[C@@]2(CN1C(=O)[C@@H](NC(=O)[C@@H](NC(=O)[C@@H]1CCCN1CC)C1(C)CCCCC1)C(C)(C)C)C(C)(C)C21CCC1)C(=O)NS(=O)(=O)N1CCCC1` [Compound 136, (5R,8S)-7-[(2S)-2-{[(2S)-2-({[(2S)-1-ethylpyrrolidin-2-yl]carbonyl}amino)-2-(1-methylcyclohexyl)acetyl]amino}-3,3-dimethylbutanoyl]-10,10-dimethyl-N-{(1R,2S)-1-[(pyrrolidin-1-ylsulfonyl)carbamoyl]-2-vinylcyclopropyl}-7-azadispiro[3.0.4.1]decane-8-carboxamide], 7 nM.

As to `C=C[C@@H]1C[C@]1(NC(=O)[C@@H]1C[C@@]2(CN1C(=O)[C@@H](NC(=O)[C@@H](NC(=O)[C@H]1CCCCN1C(C)C)C1CCCCC1)C(C)(C)C)C(C)(C)C21CCC1)C(=O)NS(=O)(=O)N(CC)CCC` [Compound 137, (5R,8S)-7-[(2S)-2-{[(2S)-2-cyclohexyl-2-({[(2R)-1-isopropylpiperidin-2-yl]carbonyl}amino)acetyl]amino}-3,3-dimethylbutanoyl]-N-[(1R,2S)-1-({[ethyl(propyl)amino]sulfonyl}carbamoyl)-2-vinylcyclopropyl]-10,10-dimethyl-7-azadispiro[3.0.4.1]decane-8-carboxamide], the IC50 came out at 3.5 nM. The result for `[2H]C([2H])([2H])C([2H])([2H])N1CCC[C@H]1C(=O)NC(C(=O)N[C@H](C(=O)N1C[C@]2(C[C@H]1C(=O)N[C@]1(C(=O)NS(=O)(=O)N3CCCC3)C[C@H]1C=C)C(C)(C)C21CCC1)C(C)(C)C)C1CCCCC1` (stereo partly drawn) [Compound 138, (5R,8S)-7-[(2S)-2-{[(2S)-2-cyclohexyl-2-({[(2S)-1-d5-ethylpyrrolidin-2-yl]carbonyl}amino)acetyl]amino}-3,3-dimethylbutanoyl]-10,10-dimethyl-N-{(1R,2S)-1-[(pyrrolidin-1-ylsulfonyl)carbamoyl]-2-vinylcyclopropyl}-7-azadispiro[3.0.4.1]decane-8-carboxamide-d5] reads 3 nM; that for `[2H]C([2H])([2H])C([2H])([2H])N1CCCC[C@H]1C(=O)NC(C(=O)N[C@H](C(=O)N1C[C@]2(C[C@H]1C(=O)N[C@]1(C(=O)NS(=O)(=O)N3CCCC3)C[C@H]1C=C)C(C)(C)C21CCC1)C(C)(C)C)C1CCCCC1` (stereo partly drawn) [Compound 139, (5R,8S)-7-[(2S)-2-{[(2S)-2-cyclohexyl-2-({[(2S)-1-d5-ethylpiperidin-2-yl]carbonyl}amino)acetyl]amino}-3,3-dimethylbutanoyl]-10,10-dimethyl-N-{(1R,2S)-1-[(pyrrolidin-1-ylsulfonyl)carbamoyl]-2-vinylcyclopropyl}-7-azadispiro[3.0.4.1]decane-8-carboxamide-d5], 3.5 nM. As to `CC[C@@H]1C[C@]1(NC(=O)[C@@H]1C[C@@]2(CN1C(=O)[C@@H](NC(=O)[C@@H](NC(=O)[C@@H]1CCCCN1C(C)C)C1CCCCC1)C(C)(C)C)C(C)(C)C21CCC1)C(=O)NS(=O)(=O)N(C)C(C)C` [Compound 141, (5R,8S)-7-[(2S)-2-{[(2S)-2-cyclohexyl-2-({[(2S)-1-isopropylpiperidin-2-yl]carbonyl}amino)acetyl]amino}-3,3-dimethylbutanoyl]-N-[(1R,2R)-2-ethyl-1-({[isopropyl(methyl)amino]sulfonyl}carbamoyl)cyclopropyl]-10,10-dimethyl-7-azadispiro[3.0.4.1]decane-8-carboxamide], the half-inhibitory concentration (IC50) stood at 8 nM. The result for `CCCN(C)S(=O)(=O)NC(=O)[C@@]1(NC(=O)[C@@H]2C[C@@]3(CN2C(=O)[C@@H](NC(=O)[C@@H](NC(=O)[C@@H]2CCCCN2C(C)C)C2CCCCC2)C(C)(C)C)C(C)(C)C32CCC2)C[C@H]1CC` [Compound 142, (5R,8S)-7-[(2S)-2-{[(2S)-2-cyclohexyl-2-({[(2S)-1-isopropylpiperidin-2-yl]carbonyl}amino)acetyl]amino}-3,3-dimethylbutanoyl]-N-[(1R,2R)-2-ethyl-1-({[methyl(propyl)amino]sulfonyl}carbamoyl)cyclopropyl]-10,10-dimethyl-7-azadispiro[3.0.4.1]decane-8-carboxamide] reads 10 nM; that for `C=C[C@@H]1C[C@]1(NC(=O)[C@@H]1C[C@@]2(CN1C(=O)[C@@H](NC(=O)[C@@H](NC(=O)[C@@H]1CCCCN1C(C)C)C1CCCCC1)C(C)(C)C)C(C)(C)C21CCC1)C(=O)NS(=O)(=O)N1CCC(F)(F)C1` [Compound 143, (5R,8S)-7-[(2S)-2-{[(2S)-2-cyclohexyl-2-({[(2S)-1-isopropylpiperidin-2-yl]carbonyl}amino)acetyl]amino}-3,3-dimethylbutanoyl]-N-[(1R,2S)-1-{[(3,3-difluoropyrrolidin-1-yl)sulfonyl]carbamoyl}-2-vinylcyclopropyl]-10,10-dimethyl-7-azadispiro[3.0.4.1]decane-8-carboxamide], 3 nM. For `C=C[C@@H]1C[C@]1(NC(=O)[C@@H]1C[C@@]2(CN1C(=O)[C@@H](NC(=O)[C@@H](NC(=O)[C@@H]1SCCN1CC)C1CCCCC1)C(C)(C)C)C(C)(C)C21CCC1)C(=O)NS(=O)(=O)N1CCCC1` [Compound 144, (5R,8S)-7-[(2S)-2-{[(2S)-2-cyclohexyl-2-({[(2S)-3-ethyl-1,3-thiazolidin-2-yl]carbonyl}amino)acetyl]amino}-3,3-dimethylbutanoyl]-10,10-dimethyl-N-{(1R,2S)-1-[(pyrrolidin-1-ylsulfonyl)carbamoyl]-2-vinylcyclopropyl}-7-azadispiro[3.0.4.1]decane-8-carboxamide] the value was 9 nM.

For the origin of these results see patent publication US8613914B2, “Peptidomimetic sulfamide compounds and antiviral uses thereof” (Novartis AG, priority 2009, dated 2013).
